According to PubChem BioAssay (NCI):
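Results reflect a 48-hour exposure of cells in 96-well plates to compound at five concentrations. GI50 = concentration required for 50% inhibition of growth. The concentration for full growth arrest is given as TGI.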

Experiments:
Assay in all cases: growth of human tumour cells (NCI), 48 h
786-0 renal = tested on: 786-0 renal
A498 renal = tested on: A498 renal
A549 NSCLC = tested on: A549 NSCLC
ACHN renal = tested on: ACHN renal
BT-549 breast = tested on: BT-549 breast
CAKI-1 renal = tested on: CAKI-1 renal
CCRF-CEM leukemia = tested on: CCRF-CEM leukemia
COLO 205 colon = tested on: COLO 205 colon
DU-145 prostate = tested on: DU-145 prostate
EKVX NSCLC = tested on: EKVX NSCLC
HCC-2998 colon = tested on: HCC-2998 colon
HCT-116 colon = tested on: HCT-116 colon
HCT-15 colon = tested on: HCT-15 colon
HL-60(TB) leukemia = tested on: HL-60(TB) leukemia
HOP-62 NSCLC = tested on: HOP-62 NSCLC
HOP-92 NSCLC = tested on: HOP-92 NSCLC
HS 578T breast = tested on: HS 578T breast
HT29 colon = tested on: HT29 colon
IGROV1 ovarian = tested on: IGROV1 ovarian
K-562 leukemia = tested on: K-562 leukemia
KM12 colon = tested on: KM12 colon
LOX IMVI melanoma = tested on: LOX IMVI melanoma
M14 melanoma = tested on: M14 melanoma
MALME-3M melanoma = tested on: MALME-3M melanoma
MCF7 breast = tested on: MCF7 breast
MDA-MB-231 breast = tested on: MDA-MB-231 breast
MDA-MB-435 = tested on: MDA-MB-435
MDA-MB-468 breast = tested on: MDA-MB-468 breast
MOLT-4 leukemia = tested on: MOLT-4 leukemia
NCI-H226 lung = tested on: NCI-H226 lung
NCI-H23 lung = tested on: NCI-H23 lung
NCI-H460 lung = tested on: NCI-H460 lung
NCI-H522 lung = tested on: NCI-H522 lung
NCI/ADR-RES ovarian = tested on: NCI/ADR-RES ovarian
OVCAR-3 ovarian = tested on: OVCAR-3 ovarian
OVCAR-4 ovarian = tested on: OVCAR-4 ovarian
OVCAR-5 ovarian = tested on: OVCAR-5 ovarian
OVCAR-8 ovarian = tested on: OVCAR-8 ovarian
PC-3 prostate = tested on: PC-3 prostate
RPMI-8226 leukemia = tested on: RPMI-8226 leukemia
RXF 393 renal = tested on: RXF 393 renal
SF-268 CNS = tested on: SF-268 CNS
SF-295 CNS = tested on: SF-295 CNS
SF-539 CNS = tested on: SF-539 CNS
SK-MEL-2 melanoma = tested on: SK-MEL-2 melanoma
SK-MEL-28 melanoma = tested on: SK-MEL-28 melanoma
SK-MEL-5 melanoma = tested on: SK-MEL-5 melanoma
SK-OV-3 ovarian = tested on: SK-OV-3 ovarian
SN12C renal = tested on: SN12C renal
SNB-19 CNS = tested on: SNB-19 CNS
SNB-75 CNS = tested on: SNB-75 CNS
SR leukemia = tested on: SR leukemia
SW-620 colon = tested on: SW-620 colon
T-47D breast = tested on: T-47D breast
TK-10 renal = tested on: TK-10 renal
U251 CNS = tested on: U251 CNS
UACC-257 melanoma = tested on: UACC-257 melanoma
UACC-62 melanoma = tested on: UACC-62 melanoma
UO-31 renal = tested on: UO-31 renal

COc1ccc(CN2[C@H](C(=O)NCCCCCCC(=O)NO)Cc3c([nH]c4ccccc34)[C@H]2C2CC2)cc1 showed a GI50 (786-0 renal) of 3.39 µM, a TGI (786-0 renal) of over 20 µM and a GI50 (A498 renal) of 1.13 µM. It also gave a TGI (A498 renal) of 4.2 µM, a GI50 (A549 NSCLC) of 2.15 µM and a TGI (A549 NSCLC) of over 13 µM. For the same molecule, the GI50 (ACHN renal) was 1.72 µM, the TGI (ACHN renal) was 6.11 µM and the GI50 (BT-549 breast) was 5.34 µM. The TGI (BT-549 breast) was over 19.1 µM, the GI50 (CAKI-1 renal) was 1.48 µM and the TGI (CAKI-1 renal) was 7.56 µM. It also gave a GI50 (CCRF-CEM leukemia) of 1.25 µM, a TGI (CCRF-CEM leukemia) of over 20 µM and a GI50 (COLO 205 colon) of 1.63 µM. For the same molecule, the TGI (COLO 205 colon) was 4.87 µM, the GI50 (DU-145 prostate) was 2.12 µM and the TGI (DU-145 prostate) was over 20 µM. For the same molecule, the GI50 (EKVX NSCLC) was 2.25 µM, the TGI (EKVX NSCLC) was over 20 µM and the GI50 (HCC-2998 colon) was 1.61 µM. It also gave a TGI (HCC-2998 colon) of 4.55 µM, a GI50 (HCT-116 colon) of 1.16 µM and a TGI (HCT-116 colon) of over 13.3 µM. For the same molecule, the GI50 (HCT-15 colon) was 4.34 µM, the TGI (HCT-15 colon) was over 16.5 µM and the GI50 (HL-60(TB) leukemia) was 2.12 µM. For the same molecule, the TGI (HL-60(TB) leukemia) was over 20 µM, the GI50 (HOP-62 NSCLC) was 2.16 µM and the TGI (HOP-62 NSCLC) was over 10.6 µM. The GI50 (HOP-92 NSCLC) was 1.29 µM, the TGI (HOP-92 NSCLC) was 4.38 µM and the GI50 (HS 578T breast) was 1.65 µM. It also gave a TGI (HS 578T breast) of 10.7 µM, a GI50 (HT29 colon) of 1.35 µM and a TGI (HT29 colon) of 10.6 µM. It also gave a GI50 (IGROV1 ovarian) of 1.41 µM, a TGI (IGROV1 ovarian) of 4.69 µM and a GI50 (K-562 leukemia) of 1.86 µM. It also gave a TGI (K-562 leukemia) of over 20 µM, a GI50 (KM12 colon) of 2.14 µM and a TGI (KM12 colon) of over 14.2 µM. For the same molecule, the GI50 (LOX IMVI melanoma) was 1.31 µM, the TGI (LOX IMVI melanoma) was 3.59 µM and the GI50 (M14 melanoma) was 2.02 µM. The TGI (M14 melanoma) was over 20 µM, the GI50 (MALME-3M melanoma) was 0.946 µM and the TGI (MALME-3M melanoma) was 3.84 µM. It also gave a GI50 (MCF7 breast) of 1.8 µM, a TGI (MCF7 breast) of over 16.1 µM and a GI50 (MDA-MB-231 breast) of 1.41 µM. For the same molecule, the TGI (MDA-MB-231 breast) was 4.2 µM, the GI50 (MDA-MB-435) was 1.16 µM and the TGI (MDA-MB-435) was 3.49 µM. For the same molecule, the GI50 (MDA-MB-468 breast) was 1.02 µM, the TGI (MDA-MB-468 breast) was over 5.34 µM and the GI50 (MOLT-4 leukemia) was 1.96 µM. The TGI (MOLT-4 leukemia) was over 20 µM, the GI50 (NCI-H226 lung) was 2.9 µM and the TGI (NCI-H226 lung) was over 16.5 µM. For the same molecule, the GI50 (NCI-H23 lung) was 1.88 µM, the TGI (NCI-H23 lung) was 8.19 µM and the GI50 (NCI-H460 lung) was 1.78 µM. It also gave a TGI (NCI-H460 lung) of over 20 µM, a GI50 (NCI-H522 lung) of 1.33 µM and a TGI (NCI-H522 lung) of 5.21 µM. The GI50 (NCI/ADR-RES ovarian) was 5.42 µM, the TGI (NCI/ADR-RES ovarian) was over 20 µM and the GI50 (OVCAR-3 ovarian) was 1.89 µM. It also gave a TGI (OVCAR-3 ovarian) of 8.38 µM, a GI50 (OVCAR-4 ovarian) of 5.24 µM and a TGI (OVCAR-4 ovarian) of over 20 µM. It also gave a GI50 (OVCAR-5 ovarian) of 1.09 µM, a TGI (OVCAR-5 ovarian) of 3.18 µM and a GI50 (OVCAR-8 ovarian) of 1.95 µM. It also gave a TGI (OVCAR-8 ovarian) of over 10.2 µM, a GI50 (PC-3 prostate) of 1.88 µM and a TGI (PC-3 prostate) of over 20 µM. The GI50 (RPMI-8226 leukemia) was 1.87 µM, the TGI (RPMI-8226 leukemia) was over 20 µM and the GI50 (RXF 393 renal) was 0.898 µM. It also gave a TGI (RXF 393 renal) of 2.45 µM, a GI50 (SF-268 CNS) of 2.87 µM and a TGI (SF-268 CNS) of over 13.7 µM. The GI50 (SF-295 CNS) was 1.42 µM, the TGI (SF-295 CNS) was 4.33 µM and the GI50 (SF-539 CNS) was 1.82 µM. It also gave a TGI (SF-539 CNS) of 8.74 µM, a GI50 (SK-MEL-2 melanoma) of 0.998 µM and a TGI (SK-MEL-2 melanoma) of 18.1 µM. It also gave a GI50 (SK-MEL-28 melanoma) of 1.66 µM, a TGI (SK-MEL-28 melanoma) of 6.85 µM and a GI50 (SK-MEL-5 melanoma) of 1.25 µM. The TGI (SK-MEL-5 melanoma) was 2.97 µM, the GI50 (SK-OV-3 ovarian) was 1.17 µM and the TGI (SK-OV-3 ovarian) was 3.28 µM. The GI50 (SN12C renal) was 2.19 µM, the TGI (SN12C renal) was 8.58 µM and the GI50 (SNB-19 CNS) was 2.11 µM. For the same molecule, the TGI (SNB-19 CNS) was 12.5 µM, the GI50 (SNB-75 CNS) was 0.397 µM and the TGI (SNB-75 CNS) was over 5.95 µM. It also gave a GI50 (SR leukemia) of 1.12 µM, a TGI (SR leukemia) of over 20 µM and a GI50 (SW-620 colon) of 1.15 µM. For the same molecule, the TGI (SW-620 colon) was 3.53 µM, the GI50 (T-47D breast) was 1.52 µM and the TGI (T-47D breast) was 4.71 µM. The GI50 (TK-10 renal) was 1.39 µM, the TGI (TK-10 renal) was 7.36 µM and the GI50 (U251 CNS) was 1.81 µM. It also gave a TGI (U251 CNS) of 7.26 µM, a GI50 (UACC-257 melanoma) of 1.76 µM and a TGI (UACC-257 melanoma) of over 9.72 µM. It also gave a GI50 (UACC-62 melanoma) of 1.01 µM, a TGI (UACC-62 melanoma) of 2.56 µM and a GI50 (UO-31 renal) of 2.28 µM. The TGI (UO-31 renal) was 9.5 µM.
